# Read-outs that look alike come from different tables or passages of the source.
# Assays:
# [1] = tested on: neuronal cell line derived from human neuroblastoma; settings: neuronal cells, 24 hours
# From the text: (§1) To quantify and characterize gigasome production using microscopy, while tracking cell viability/phenotype, a multi-readout system was developed that allowed simultaneous analysis of gigasomes harvested from cell culture media supernatants and respective gigasome producing cell viability. […] For the screening, a total of 99 compounds (TargetMol) were divided in 5 groups. Each group included an untreated condition, a vehicular DMSO control, and a known high-gigasome producing condition to comparatively study gigasome production rates. As a cell death control group, 500 nM Staurosporine was added to induce apoptosis. Cultures were incubated for 24 hours under gigasome inducing conditions at concentrations ranging between 10 nM and 10,000 nM. Before the end of the treatment, live neuronal cultures were imaged. The Zeiss ZEN Blue software was used to distribute imaging fields of view (positions) to create an unbiased imaging sample of a well. 5 images were taken using a Zeiss LSM 900 confocal microscope. […] The BioApps ZEN software package was used to perform cell nucleus segmentation and counting. After 24 hours, gigasomes were harvested from the cell culture media by gently removing from the top of each 96-well ⅔ of the total volume without disturbing the cell layer (containing the settled gigasomes) and by adding to each well the same amount of PBS. The wells were washed twice gently, and the gigasome-containing media/PBS wash was transferred into the well of a 384-well glass bottom plate. Cells remaining in the 96-well plates were assessed for viability using CellTiter-Glo (Promega).
# (§2) For gigasome analysis in 384-well plates, the Zeiss ZEN Blue software was used to distribute positions to create an unbiased imaging sample of a well. 6 images per well were taken using a Zeiss LSM 900 confocal microscope.
# (§3) A watershed binary segmentation step was performed to separate grouped objects. For each particle in the mask, characteristic parameters of the particle were calculated and saved.
# (§4) Particles of interest were identified by thresholding by area and circularity. […] Circularity, defined by the formula 4pi(area/perimeter^2, was set to be between 0.8 and 1, where a value of 1.0 is a perfect circle, and a value of 0 is a line. Gigasomes were identified from the particles of interest by thresholding by mean nuclear signal. The nuclear signal threshold was set using a value equal to one fourth of a threshold value calculated by the Li auto-threshold algorithm applied to the distribution of all particles of interest. Particles of interest with nuclear signal below this value were considered “negative” for nuclear material and were identified as gigasomes. A sampling factor was calculated to extrapolate the total quantity of a type of object (particles, particles of interest, gigasomes) in the well. The sampling factor was the percentage of the well's area that was imaged. […] The normalized quantity or distribution of objects was described as a quantity or distribution of objects per 1000 cells.
# [2] = tested on: neuronal cell line derived from human neuroblastoma; settings: human, 24 h
# Procedure: For the screening, a total of 99 compounds (TargetMol) were divided in 5 groups. Each group included an untreated condition, a vehicular DMSO control, and a known high-gigasome producing condition to comparatively study gigasome production rates. As a cell death control group, 500 nM Staurosporine was added to induce apoptosis. Cultures were incubated for 24 hours under gigasome inducing conditions at concentrations ranging between 10 nM and 10,000 nM. Before the end of the treatment, live neuronal cultures were imaged. The Zeiss ZEN Blue software was used to distribute imaging fields of view (positions) to create an unbiased imaging sample of a well. 5 images were taken using a Zeiss LSM 900 confocal microscope. […] The BioApps ZEN software package was used to perform cell nucleus segmentation and counting. After 24 hours, gigasomes were harvested from the cell culture media by gently removing from the top of each 96-well ⅔ of the total volume without disturbing the cell layer (containing the settled gigasomes) and by adding to each well the same amount of PBS. […] Cells remaining in the 96-well plates were assessed for viability using CellTiter-Glo (Promega).
# [3] = tested on: neuronal cell line derived from human neuroblastoma; test: Small molecule compound screen of gigasome production in neuronal monocultures; settings: Homo sapiens, 24 h, read-out: Fold Change of Gigasomes Produced vs. DMSO
# From the text: as §1, §2, §3, §4
# neuronal cells [4] = test: Gigasome-mediated extraction of APP-CTFs upon γ-secretase and proteasome inhibition (fixed plates, confocal); format: cell-based, human; settings: γ-secretase inhibitor 5 μM, MG-132 0.1 μM, alone or combined; 24 h; compared to DMSO
# Procedure: Cells were treated with the γ-secretase inhibitor L-685,458 at 5 μM, either alone or in combination with the proteasome inhibitor MG-132 at 0.1 μM. A vehicular control amount of DMSO was added to the media to comparatively study cargo signals within cells and gigasomes. Treatments were carried out in reduced serum-containing media (3% FBS) for 24 hours. Disease-related cargo presence within cells and in gigasomes was characterized and quantified by confocal microscopy analysis of 4% paraformaldehyde fixed cells, following (immuno)fluorescent labeling of cytosolic, nuclear and cargo-specific protein markers. In some experiments β-III tubulin and Alexa Fluor® 488 phalloidin were used to mark the cytosol and proximal plasma membrane, respectively. To detect APP-CTFs, an antibody against the C-terminus of APP (C-APP) was used (see Table 12). Non-specific labeling was blocked by incubation with 5% normal goat serum in PBS in the presence of 0.05% saponin, for 1 h at room temperature. Primary antibodies were incubated overnight at 4° C., followed by incubation with Alexa Fluor®-conjugated secondary antibodies for 1 hour at room temperature. Nuclei were counterstained with DAPI.
# A range of 5-8 images per well were taken from replicate experiments to capture a final total range of 150-200 cells. […] The cellular cargo fluorescence intensity in the red channel was quantified by subtracting the background signal from each image, using the ImageJ built-in “subtract background” function with a default rolling ball radius of 50 pixel. The cargo signal (integrated density) in the red channel was measured and normalized to the number of nuclei counted in each field. […]
# For particle analysis, the cytosolic and F-actin/membrane signals were merged into single RGB image, converted to grayscale and then thresholded to create a cellular mask of objects in the field of view, as calculated by the “Li” autothreshold algorithm. […] The quantity or distribution of objects obtained from the particle analysis was divided by the number of cells counted in each field to obtain a normalized quantity or distribution.
# neuronal cells [5] = test: Gigasome-mediated extraction of stress granule-associated protein HuR (fixed plates, confocal); format: cell-based, human; settings: 5 μM sodium arsenite, 0.2 μM MG-132, alone or combined, 24 h
# Procedure: For this paradigm, cells were treated with a low sodium arsenite concentration of 5 μM either alone or in combination with the proteasome inhibitor MG-132 at 0.2 μM. A vehicular control amount of DMSO was added to the media to comparatively study cargo signals within cells and gigasomes. Treatments were carried out in reduced serum-containing media for 24 hours to mimic a chronic exposure to arsenite. The presence of the stress-granule-related cargo within cells and in gigasomes was characterized and quantified by confocal microscopy analysis of 4% paraformaldehyde. Non-specific labeling was blocked by incubation with 5% normal goat serum in PBS in the presence of 0.1% Triton X-100, for 2 h at room temperature, followed by immunolabeling with an antibody against the RNA-binding protein HuR (see Table 12) and incubation with Alexa Fluor® 568 secondary antibodies. Phalloidin Alexa Fluor® 488 was used to mark the proximal plasma membrane. Nuclei were counterstained with DAPI.
# Images were captured using a Zeiss LSM 900 confocal microscope and a 40× objective. For analysis, 10×16-bit images per well were processed to obtain a final total range of 75-200 cells. Composite images were separated in the different channels. The background was subtracted from the red cargo-related channel, as described in Example 13a. The nuclear signal in the blue channel was thresholded using the “Yen” autothreshold algorithm. To measure the nuclear-to-cytosolic translocation of the stress-granule-related protein cargo upon treatment, firstly, the cargo-related nuclear signal was subtracted from the respective red channel image by creating a nuclear selection from the thresholded blue channel image, which was added to ImageJ Manager. The nuclear selection was then transferred to the background-subtracted red channel and the nuclear cargo signal was removed from the image leaving only the cytosolic signal. The cleared red channel image was thresholded using the “default” autothreshold algorithm for downstream particle analysis. To measure the cytosolic cargo signal, a cellular mask was then generated by thresholding the Green/F-actin channel using the “Li” autothreshold method. A cytosolic selection was created, added to ImageJ Manager, and transferred to the background subtracted, nuclear-cleared red channel image. The cytosolic cargo signal (integrated density) was measured and normalized to the number of nuclei counted in each field. Particle analysis was performed as described in Example 13a, using the thresholded green channel to identify particles of interest by filtering by area and circularity and re-directing to the blue and red channel for absence of nuclear signal and eventual presence of disease-related cargo, respectively. The quantity or distribution of objects obtained from the particle analysis was obtained as described in Example 13a.
smiles,measurement,setting,value
Cn1cncc1[C@@](N)(c1ccc(Cl)cc1)c1ccc2c(c1)c(-c1cccc(Cl)c1)cc(=O)n2C [Tipifarnib],Number of Gigasomes Produced,[1]; dose 10 nM,<35
same,Number of Gigasomes Produced,[1]; dose 100 nM,55-65
same,Number of Gigasomes Produced,[1]; dose 1000 nM,65-75
same,Viability,[2]; 10 nM,>75%
same,Viability,[2]; 100 nM,>75%
same,Viability,[2]; 1000 nM,50-75%
same,fold induction at 0.01 µM,[3],0.75 to 1
same,fold induction at 0.1 µM,[3],1.5 to 1.75
same,fold induction at 1 µM,[3],1.75 to 2
"CC(C)C[C@H](NC(=O)[C@H](Cc1ccccc1)C[C@@H](O)[C@H](Cc1ccccc1)NC(=O)OC(C)(C)C)C(=O)N[C@@H](Cc1ccccc1)C(N)=O [γ-secretase inhibitor, L-685,458]",intracellular APP-CTF levels (C-APP immunoreactivity),neuronal cells [4],increase
O=[As]O [sodium arsenite],HuR cytosolic signal,neuronal cells [5]; compared to DMSO (FIG. 7B),increased
same,gigasomes per 1000 cells,neuronal cells [5]; fixed plates (FIG. 7C),200 per 1000 cells
